Values of other authors as cited in US20110150946A1 (priority 2008, published 2011).

Details: sublingual apomorphine 4 mg per patient

CN1CCc2cccc3c2[C@H]1Cc1ccc(O)c(O)c1-3 [apomorphine, 5,6,6a,7-tetrahydro-6-methyl-4H-dibenzo[de, g]quinoline-10,11-diol]
nausea incidence: 14.1%
